Test results taken from publication PMC9238271, “The quorum sensing peptide EntF* promotes colorectal cancer metastasis in mice: a new factor in the host-microbiome interaction” (BMC Biology, 2022).
Several values for one entry are separate records, joined by “and”; a condition that tells them apart may be missing. Identical values can stand only once.

What was measured:
[1] = test system: E-cadherin expression in HCT-8 cells; experiment: Western blot of E-cadherin expression, HCT-8 cells (EntF*, alanine and D-amino acid analogs); type: cell-based
Procedure: (§1) HCT-8, HT-29, and HT-116 cells were grown in DMEM medium supplied with 10% fetal bovine serum (FBS) and 1% penicillin-streptomycin. Caco-2 cells were grown in DMEM medium supplied with 10% FBS, 1% non-essential amino acid NEAA), and 1% penicillin-streptomycin. Cells were cultured at 37 °C and 5% CO2. As cells reached confluency, they were detached using 0.25% Trypsin-EDTA.
(§2) For Western blot analyses, HCT-8 (n = 15), HCT-116 (n = 12), Caco-2 (n = 6), and HT-29 (n = 12) cells were seeded in 6-well plates at a density of 1 × 10^6 cells/well. Twenty-four hours after seeding, all cell lines were treated with 1 μM EntF* or a placebo solution. HCT-8 cells were also tested for responsiveness to 1 μM EntF* synthetic alanine-derived analogs. For antagonist activity analysis, HCT-8 cells were treated with 1 μM Nef-M1 or 1 μM EntF*A1 alone or in combination with 500 nM EntF*. After 24 h, cells were detached from the surface and lysed in RIPA buffer (Thermo Scientific). Protein concentration was determined using the modified Lowry protein assay kit (Thermo Scientific), according to the manufacturer’s instructions. Protein samples were diluted to the same concentration (4 μg/μL) with water and diluted again 1:1 using 2x Laemmli buffer. After that, samples were boiled for 5 min at 95 °C to denature proteins and centrifuged for 5 min at 16,000g; supernatants were used for Western blot analyses. Equal amounts of total protein (20 μg/lane) were separated by SDS-PAGE on an Any kD^TM gel (Bio-Rad ) and then transferred to a PVDF membrane. Before incubation with antibodies, non-specific binding sites on the membranes were blocked using 5% skimmed milk solution (1 h). TBS buffer with 0.05% Tween 20 was used for all washing steps. Membranes were incubated overnight at 4 °C with an anti-E-cadherin primary antibody (1/1000 dilution). An HRP-conjugated anti-rabbit antibody (1/2000 dilution, 1 h incubation) was used for chemiluminescent detection. Membranes were incubated with the detection substrate for 5 min and signal detection was performed using the ChemiDoc EZ imager and Image Lab software (Bio-Rad). Signal intensity was normalized against the total protein content in each lanes.
A quantitative approach was used to evaluate the importance of each amino acid, where the Fisher’s LSD p-values of (1) multiple comparisons between EntF* and the alanine (ALA) scan and (2) multiple comparisons between different peptides of the ALA scan are combined. Subsequently, based on the combined P-score, the amino acids were classified in 5 classes using a hierarchical cluster analysis and confirmed using the Jenks natural breaks algorithm with K = 5. CombinedPscore=1-PPBSvsALAscan*PEntF*vsALAscan

[2] = test system: E-cadherin expression in HT-29 cells; experiment: Western blot of E-cadherin expression, HT-29 cells; type: cell-based; details: HT-29 cells, average of n = 12
Procedure: as §1
as §2, with “Signal intensity was normalized against the total protein content in each lanes.” left out

[3] = test system: E-cadherin expression in Caco-2 cells; experiment: Western blot of E-cadherin expression, Caco-2 cells; type: cell-based; details: CaCo-2 cells, average of n = 6
Procedure: as §1
as §2, with “Signal intensity was normalized against the total protein content in each lanes.” left out

[4] = test system: E-cadherin expression in HCT-116 cells; experiment: Western blot of E-cadherin expression, CXCR4-negative HCT-116 cells; type: cell-based
Procedure: as §1, §2

[5] = test system: luciferase-transfected HCT-8/E11 cells injected into the cecal wall; experiment: Orthotopic mouse model of colorectal cancer: weekly bioluminescent imaging; type: in vivo, female athymic nude mice (Swiss nu/nu)
Procedure: All in vivo experiments were performed according to the Ethical Committee principles of laboratory animal welfare, approved by our institute (Ghent University, Faculty of Medicine and Health Sciences, approval number ECD 17-90). Mice were maintained in a sterile environment under controlled conditions (light–dark cycle with light from 7:00 h to 17:00 h, temperature 21–25 °C and humidity 45–65%). Before the experiment, mice were allowed to acclimate to the abovementioned conditions for a minimum of 7 days.
(§3) Six-week-old female athymic nude mice (Swiss nu/nu) were anesthetized, and a minimally invasive midline laparotomy was performed to localize the cecum. The cecum was then gently pulled out, and luciferase-transfected HCT-8/E11 cells (1 × 10^6 cells) in 20 μL serum-free DMEM medium with Matrigel (1:1) were injected into the cecal wall. Before implantation, cells were treated with EntF* (10^2 nM), Phr0662 (10^2 nM), vehicle (PBS), or TGFα positive control (0.1 μg mL^−1) solutions for 5 days. The cecum was then carefully placed back into the abdominal cavity and the surgical incision was closed with two layers of sutures with PDS 6-0. […] Once a week, mice were examined for tumor growth and metastases using bioluminescent imaging with the IVIS Lumina II (Perkin Elmer, Belgium) after i.p. injection with 200 μL luciferin (150 mg kg^−1). After 6 weeks, mice were euthanized using cervical dislocation, and the liver, diaphragm, lungs, cecum, duodenum, and peritoneum were macroscopically examined for the presence of tumor nodules. Liver and lung tissues were then fixed in formalin for 24 h and stored in 70% ethanol for maximum 3 days before embedding in paraffin. Next, a hematoxylin and eosin (H&E) staining was performed on 8 μm sections, and 3 sections per mouse were visualized using microscopy. Slides from tumor-bearing mice were analyzed by two blinded, independent investigators using the scoring system described in Additional file 5: Table S3. In case of differences, slides were scored by a third blinded, independent investigator for consensus.
(§4) The Kolmogorov-Smirnov test was used to assess if data obtained were normally distributed. For sample size n < 10, non-parametric tests (Mann-Whitney U test) were performed directly. Slope comparison was based on linear regression analysis. Bootstrapped medians and Hedges G-values were used to calculate the effect size when sample sizes were different between the groups.

[6] = test system: luciferase-transfected HCT-8/E11 cells injected into the cecal wall; experiment: Orthotopic mouse model: macroscopic number of tumor nodules on the cecum; type: in vivo, female athymic nude mice (Swiss nu/nu)
Procedure: as §3
as §4, with “groups. Cohen’s d values were calculated as a measure of the effect size when similar standard deviations for both groups were found, and sample sizes were the same.” for “groups.”

[7] = test system: tumor nodules in the liver; experiment: Orthotopic mouse model: histopathological evaluation of liver; type: in vivo, female athymic nude mice (Swiss nu/nu)
Procedure: as §3

[8] = test system: tumor nodules in the lungs; experiment: Orthotopic mouse model: histopathological evaluation of lungs; type: in vivo, female athymic nude mice (Swiss nu/nu)
Procedure: as §3

[9] = after a 6-week treatment, compared to the placebo group
[10] = individual samples, one line per sample

## C-X-C motif chemokine 12 (KPVSLSYRC; only N-terminal stretch given) [CXCL12, endogenous ligand of the CXCR4 receptor]
[1]; 24 h, n = 15
  effect on E-cadherin levels in HCT-8 cells: significant decrease
[1]; D-scan sheet, Blot 13, CXCL12 1µg/ml, relative to H2O lane = 100.0, single blot
  E-cadherin expression relative to H2O control (= 100): 89.3
[1]; D-scan sheet, Blot 14, CXCL12 1µg/ml, relative to H2O lane = 100.0, single blot
  E-cadherin expression relative to H2O control (= 100): 93.2
[1]; D-scan sheet, Blot 15, CXCL12 1µg/ml, relative to H2O lane = 100.0, single blot
  E-cadherin expression relative to H2O control (= 100): 77.6
[1]; D-scan sheet, Blot 16, CXCL12 1µg/ml, relative to H2O lane = 100.0, single blot
  E-cadherin expression relative to H2O control (= 100): 91.1
[1]; D-scan sheet, Blot 17, CXCL12 10µg/ml, relative to H2O lane = 100.0, single blot
  E-cadherin expression relative to H2O control (= 100): 46.4
[1]; D-scan sheet, Blot 18, CXCL12 10µg/ml, relative to H2O lane = 100.0, single blot
  E-cadherin expression relative to H2O control (= 100): 45.6
[1]; D-scan sheet, Blot 19, CXCL12 10µg/ml, relative to H2O lane = 100.0, single blot
  E-cadherin expression relative to H2O control (= 100): 84.8
[1]; D-scan sheet, Blot 20, CXCL12 10µg/ml, relative to H2O lane = 100.0, single blot
  E-cadherin expression relative to H2O control (= 100): 28.8
[1]; D-scan sheet, Blot 21, CXCL12 100µg/ml, relative to H2O lane = 100.0, single blot
  E-cadherin expression relative to H2O control (= 100): 80.5
[1]; D-scan sheet, Blot 22, CXCL12 100µg/ml, relative to H2O lane = 100.0, single blot
  E-cadherin expression relative to H2O control (= 100): 80.0
[1]; D-scan sheet, Blot 23 (single blot), chemiluminescence band, Norm. Vol. relative to H2O lane = 100.0, CXCL12 at 100µg/ml
  E-cadherin expression relative to H2O control (= 100): 75.6
[1]; D-scan sheet, Blot 24 (single blot), chemiluminescence band, Norm. Vol. relative to H2O lane = 100.0, CXCL12 at 100µg/ml
  E-cadherin expression relative to H2O control (= 100): 96.6
[1]; H2O = 100.0, CXCL12 at 10µg/ml, mean of the replicates (row r47, unlabelled; SEM in row below)
  E-cadherin expression relative to H2O control (= 100): 51.4
[1]; HCT-8 cells, average (EntF* n = 15, CXCL12 n = 4)
  Relative E-cadherin decrease in different cell lines, Average: 51.4
[2]
  Relative E-cadherin expression, average: 78.2
[3]
  Relative E-cadherin in different cell lines, Average: 45.3
[4]; CXCR4-negative cells, 24 h, n = 12
  effect on E-cadherin expression in HCT-116 cells: no decrease
[4]; HCT-116 cells, average of n = 12
  Relative E-cadherin level: 111.3

## Epidermal Growth Factor [EGF]
[5]; after a 6-week treatment
  effect size of bioluminescence, upper end of range: 826%
[5]; [9]
  effect size class by Hedges' G, bioluminescence: medium to large effect
[5]; after a 6-week treatment, bootstrapped median
  effect size: increase in bioluminescence compared to the placebo: 316%
[5]; daily i.p. over 6 weeks, linear regression slope comparison
  luciferase activity / tumor growth compared to the vehicle: significant increase in tumor growth
[6]; [9]
  effect size class by Hedges' G, number of nodules in the cecum: large
[6]; after a 6-week treatment, macroscopic inspection
  increase in the number of nodules on the cecum compared to PBS vehicle: 4.5 fold
[6]; macroscopic evaluation caecum, mean of the group
  Mean amount of nodules: 16.3
[7]; [10]
  Histology scoring LIVER, Scoring person 1 (ND): 4 and 3 and 2 and 0
  Histology scoring LIVER, Scoring person 2 (ADS): 4 and 2 and 1 and 3 and 0
  Histology scoring LIVER, conclusion per sample: 4 and 2 and 1 and 3 and 0
[7]; per group
  Histology scoring LIVER, conclusion per group: 3
[8]; [10]
  Histology scoring LUNGS, Scoring person 1 (ND): 3 and 4 and 0 and 1
  Histology scoring LUNGS, Scoring person 2 (ADS): 3 and 4 and 0 and 1
  Histology scoring LUNGS, conclusion per sample: 3 and 4 and 0 and 1
[8]; per group
  Histology scoring LUNGS, conclusion per group: 3

## TGFa
[1]; Ala-scan sheet, Blot 19 (single blot), chemiluminescence band, placebo lane = 100
  Relative E-cadherin decrease: 49.4514
[1]; Ala-scan sheet, Blot 20 (single blot), chemiluminescence band, placebo lane = 100
  E-cadherin expression relative to H2O control (= 100): 55.9239
[1]; Ala-scan sheet, Blot 21 (single blot), chemiluminescence band, placebo lane = 100
  Relative E-cadherin decrease: 121.047
[1]; Ala-scan sheet, Blot 24 (single blot), chemiluminescence band, Norm. Vol. relative to placebo lane = 100
  E-cadherin expression relative to H2O control (= 100): 52.2
[1]; Ala-scan sheet, Blot 25 (single blot), chemiluminescence band, Norm. Vol. relative to placebo lane = 100
  E-cadherin expression relative to H2O control (= 100): 30.5
[1]; Ala-scan sheet, Blot 26 (single blot), chemiluminescence band, Norm. Vol. relative to placebo lane = 100
  E-cadherin expression relative to H2O control (= 100): 88.2
[1]; Ala-scan sheet, Blot 27 (single blot), chemiluminescence band, Norm. Vol. relative to placebo lane = 100
  E-cadherin expression relative to H2O control (= 100): 330.9
[1]; Ala-scan, Blot 11 (single blot replicate), normalized band volume relative to Placebo = 100.0
  E-cadherin expression relative to H2O control (= 100): 85.7
[1]; Ala-scan, Blot 12 (single blot replicate), normalized band volume relative to Placebo = 100.0
  E-cadherin expression relative to H2O control (= 100): 80.6
[1]; Ala-scan, Blot 13 (single blot replicate), normalized band volume relative to Placebo = 100.0
  E-cadherin expression relative to H2O control (= 100): 55.6
[1]; Ala-scan, Blot 14 (single blot replicate), normalized band volume relative to Placebo = 100.0
  E-cadherin expression relative to H2O control (= 100): 119.9
[1]; Ala-scan, Blot 18 (single blot replicate), normalized band volume relative to Placebo = 100.0
  E-cadherin expression relative to H2O control (= 100): 188.1
[1]; H2O = 100.0, mean of the replicates (row r29, unlabelled; SEM in row below)
  Ala scan: Relative E-cadherin decrease: 73.9
[1]; H2O vs. test, 95% CI, Dunnett's and Fisher's LSD P values in neighbouring columns
  Ala-scan: Mean decrease (%): 26.1%
